{"source": "patent US20050004029A1", "about": "“Methods and compositions for treating vascular leak using hepatocyte growth factor” (priority 2001, published 2005)", "key": {"[1]": {"tested_on": "human alveolar epithelial cells (A549)", "assay": "Electrical resistance of A549 alveolar epithelial cells on gold microelectrodes", "assay_type": "cell-based", "conditions": "HGF 100 ng/mL; sphingosine 1-phosphate 1 μM", "procedure": "FIGS. 1A-1D depict HGF-mediated increases in human transendothelial electrical resistance (TER). FIG. 1A: Human pulmonary artery endothelial cells were grown to confluence on gelatinized gold microelectrodes. Two hours prior to TER measurement, growth medium was replaced with serum-free M199. Serial-diluted HGF was added to cells at indicated concentrations and TER monitored for 2.5 hr. […] The result shown is a representative TER tracing of three independent experiments. FIG. 1B: Similar to FIG. 1A, human alveolar epithelial cells (A549) were grown on gold microelectrodes and challenged with vehicle, HGF, (100 ng/mL) or sphingosine 1-phosphate (1 μM). […]\nElectrical resistance of EC monolayers was measured using electrical cell impedance sensor system (Applied Biophysics Inc., Troy, N.Y.) as described in Garcia, J. G. N. et al. (2000) J. Appl. […] Cells grown on gold microelectrodes (10^−3 cm^2) in polycarbonate wells act as insulating particles, and the resistance across the monolayers (transendothelial electrical resistance, or TER) is measured in real time. […] The in-phase and out-of-phase voltages between the electrodes were monitored in real time with the lock-in amplifier and converted to scalar measurements of transendothelial impedance, of which resistance was the primary focus. […]"}, "[2]": {"tested_on": "Human pulmonary artery endothelial cells", "assay": "Transendothelial electrical resistance (TER) of human pulmonary artery endothelial cell monolayers", "assay_type": "cell-based", "procedure": "Bovine pulmonary artery endothelial cells were purchased from the American Type Culture Collection (ATCC®, Rockville, Md.) and utilized at passage 19-24. Cells were maintained in Medium 199 (Life Technologies, Rockville, Md.) supplemented with 20% (v/v) colostrum-free bovine serum (CFBS) (Irvine Scientific, Santa Ana, Calif.), 15 μg/ml endothelial cell growth supplement (Upstate Biotechnology, Lake Placid, N.Y.), 1% antibiotic and antimycotic, and 0.1 mM non-essential amino acids (Life Technologies). Human pulmonary artery endothelial cells were purchased from Clonetics (Walkersville, Md.), cultured in EBM-2 complete medium (Clonetics) and utilized at passage 5-10. Human alveolar epithelial cells (A549) were purchased from ATCC® and cultured in the same medium as the bovine endothelial cells, except that the endothelial cell growth supplement was omitted. All cells were maintained at 37° C. in a humidified atmosphere of 5% CO2 and 95% air. Both endothelial cell types grew to contact-inhibited monolayers with the typical cobblestone morphology (Garcia, J. G. N. et al. (1995) J. Cell. Physiol. 163:510-522; Liu, F. et al. (2001) Am. J. Respir. Cell. Mol. Biol. 24:711-719).\nElectrical resistance of EC monolayers was measured using electrical cell impedance sensor system (Applied Biophysics Inc., Troy, N.Y.) as described in Garcia, J. G. N. et al. (2000) J. Appl. Physiol. 89:2333-2343. Cells grown on gold microelectrodes (10^−3 cm^2) in polycarbonate wells act as insulating particles, and the resistance across the monolayers (transendothelial electrical resistance, or TER) is measured in real time. As cells adhere on the microelectrode and intercellular cell contacts are formed or in response to agents which increase junctional integrity, the TER increases (Garcia, J. G. N. et al. (2001) J. Clin. Invest. 108:689-711). In contrast, cell retraction, rounding, or loss of adhesion is reflected by decreases in TER (Garcia, J. G. N. et al. (2000) J. Appl. Physiol. 89:2333-2343). These measurements provide a highly sensitive biophysical assay that indicates the state of cell shape, focal adhesion, and endothelial barrier function (Giaever, I. and Keese, C. R. (1993) Nature 366:591-592; Tiruppathi, C. et al. (1992) Proc. Natl. Acad. Sci. USA 89:7919-7923). All electrical resistance data are presented as normalized values. Briefly, current was applied across the electrodes by a 4000 Hz AC voltage source with an amplitude of 1 V in series with a 1 MΩ resistance to approximate a constant current source (−1 μA). The small gold electrode and the larger counter electrode (1 cm^2) were connected to a phase-sensitive lock-in amplifier (5301A; EG&G Instruments Corp, Princeton, N.J.) with a built in differential preamplifier (5316A; EG&G Instruments Corp.). The in-phase and out-of-phase voltages between the electrodes were monitored in real time with the lock-in amplifier and converted to scalar measurements of transendothelial impedance, of which resistance was the primary focus. Transendothelial electrical resistance was monitored for 30 min to establish a baseline resistance (Ro) which, for human lung endothelium, was typically between 8 to 12×10^3 Ω (wells with R0<7×10^3 Ω or R0 >15×10^3 Ω were rejected). For some experiments, total TER was vectorially resolved into components reflecting resistance to current flow beneath the cell layer (α) and resistance to current flow between adjacent cells (Rb) as described in Garcia et al. (2000) supra utilizing the method of Giaiver and Keese which models the endothelial monolayer mathematically (Giaever, I. and Keese, C. R. (1993) Nature 366:591-592). Thus, changes in α reflect alterations in the net state of cell-matrix adhesion, whereas changes in Rb reflect alterations in the integrity of cell-cell adhesion. TER values from each microelectrode were pooled at discrete time points and plotted versus time as the mean±standard error of the mean (Garcia et al. (2000) supra). […]"}}, "note": "“And” between values parts separate entries of the source, which are not always exact repeats. Equal entries are not always repeated. “Also recorded” adds a separate entry of the source."}
{"substance": "HGF: heparin-binding glycoprotein, multifunctional cytokine, ligand of c-Met; purchased from R&D Systems", "values": [{"measurement": "effect on electrical resistance of epithelial cells", "setting": "[1]", "result": "did not alter TER values; also recorded: completely without effect"}, {"measurement": "increase in TER (barrier enhancement)", "setting": "[2]; HGF 100 ng/ml, at peak", "result": "~50% and > 50%"}, {"measurement": "direct effect on TER", "setting": "[2]; HGF 2-100 ng/ml, NK2 1-100 ng/ml", "result": "increased TER in a dose-dependent manner"}, {"measurement": "time at which elevation in TER is clearly evident", "setting": "[2]; HGF 2 to 100 ng/ml", "result": "1 to 2", "unit": "min"}, {"measurement": "further increase in TER above 100 ng/ml", "setting": "[2]; HGF >100 ng/ml", "result": "No further significant increases in TER"}, {"measurement": "time of peak TER increase", "setting": "[2]; after exposure to 100 ng/ml HGF", "result": "15 to 20", "unit": "min"}, {"measurement": "TER response to re-stimulation with HGF (10 ng/ml) at 2 hr", "setting": "[2]; pretreatment with HGF at 10 and 100 ng/mL", "result": "significantly reduced the subsequent HGF responses"}, {"measurement": "TER response to re-stimulation with HGF (10 ng/ml) at 2 hr", "setting": "[2]; prior HGF stimulation at 1 ng/ml", "result": "not altered"}, {"measurement": "paracellular junction resistance (Rb)", "setting": "[2]; vectorial partitioning of TER after HGF treatment", "result": "sharp increases"}]}
